Laboratory results taken from PubChem BioAssay AID206 (DTP/NCI, 2004).
“And” between values parts separate entries of the source, which are not always exact repeats. Identical values can stand only once. Inconclusive results are not listed.

Test system: nude mice, HT29 intrarenal xenograft, tumor weight T/C
Test: NCI In Vivo Anticancer Drug Screen. Data for tumor model HT29;CX-1 Human Adenocarcinoma (MER+) (intrarenal inoculation) in NU/NU Swiss (nude) mice
Settings: endpoint: mean tumor weight change, higher = larger tumour
Summary of the method: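 Mice with transplanted tumors are dosed with compound while controls get vehicle only. Survival or tumor burden is then assessed per group, and the treated value is expressed relative to control.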

[1] = dose: 150.0 mg/kg/injection, schedule: Q04DX004 (sc), vehicle: saline with Tween-80
[2] = dose: 300.0 mg/kg/injection, schedule: Q04DX004 (sc), vehicle: saline with Tween-80
[3] = dose: 37.5 mg/kg/injection, schedule: Q04DX004 (sc), vehicle: saline with Tween-80
[4] = dose: 75.0 mg/kg/injection, schedule: Q04DX004 (sc), vehicle: saline with Tween-80
[5] = dose: 150.0 mg/kg/injection, schedule: Q04DX004 (sc), vehicle: saline
[6] = dose: 200.0 mg/kg/injection, schedule: Q04DX004 (sc), vehicle: saline with Tween-80
[7] = dose: 400.0 mg/kg/injection, schedule: Q04DX004 (sc), vehicle: saline with Tween-80
[8] = dose: 50.0 mg/kg/injection, schedule: Q04DX004 (sc), vehicle: saline with Tween-80

Cc1[nH]c(=O)[nH]c(=O)c1N(CCF)CCCl
T/C (dose: 10.0 mg/kg/injection, schedule: Q01DX010 (sc), vehicle: Klucel (hydroxypropylcellulose) (HPC)): 117 % of control
T/C (dose: 20.0 mg/kg/injection, schedule: Q01DX010 (sc), vehicle: Klucel (hydroxypropylcellulose) (HPC)): 95 % of control
T/C (dose: 40.0 mg/kg/injection, schedule: Q01DX010 (sc), vehicle: Klucel (hydroxypropylcellulose) (HPC)): 48 % of control

Cc1oc2c(C)c3oc(=O)cc(C)c3cc2c1CCl
T/C [1]: 107 % of control
T/C [2]: 71 % of control
T/C (dose: 600.0 mg/kg/injection, schedule: Q04DX004 (sc), vehicle: saline with Tween-80): 114 % of control

CCCCCC(=O)O[C@]1(C(C)=O)CC[C@H]2[C@@H]3CCC4=CC(=O)CC[C@]4(C)[C@H]3CC[C@@]21C
T/C (dose: 225.0 mg/kg/injection, schedule: Q04DX004 (sc), vehicle: Klucel (hydroxypropylcellulose) (HPC)): 73 % of control
T/C (dose: 450.0 mg/kg/injection, schedule: Q04DX004 (sc), vehicle: Klucel (hydroxypropylcellulose) (HPC)): 46 % of control
T/C (dose: 900.0 mg/kg/injection, schedule: Q04DX004 (sc), vehicle: Klucel (hydroxypropylcellulose) (HPC)): 58 % of control
T/C (dose: 1800.0 mg/kg/injection, schedule: Q04DX004 (sc), vehicle: Klucel (hydroxypropylcellulose) (HPC)): 36 % of control

Nc1nc(N)c2c(Cl)c(CNc3ccc(Cl)c(Cl)c3)ccc2n1
T/C (dose: 9.38 mg/kg/injection, schedule: Q04DX004 (sc), vehicle: saline with Tween-80): 85 % of control
T/C (dose: 18.75 mg/kg/injection, schedule: Q04DX004 (sc), vehicle: saline with Tween-80): 60 % of control
T/C [3]: 89 % of control and 94 % of control
T/C [4]: 91 % of control and 97 % of control
T/C [1]: 113 % of control
T/C [2]: 64 % of control

COc1ccc2c(c1)CCC(c1ccccc1)=C2c1ccc(OCCN2CCCC2)cc1
T/C (dose: 50.0 mg/kg/injection, schedule: Q04DX004 (sc), vehicle: Klucel (hydroxypropylcellulose) (HPC)): 87 % of control
T/C (dose: 200.0 mg/kg/injection, schedule: Q04DX004 (sc), vehicle: Klucel (hydroxypropylcellulose) (HPC)): 108 % of control
T/C (dose: 400.0 mg/kg/injection, schedule: Q04DX004 (sc), vehicle: Klucel (hydroxypropylcellulose) (HPC)): 52 % of control

COC1C(O)CC(OC2CC(Oc3cc4cc5c(c(O)c4c(O)c3C)C(=O)[C@@H](OC3CC(OC4CC(OC6CC(C)(O)C(OC(C)=O)C(C)O6)C(O)C(C)O4)C(O)C(C)O3)[C@H]([C@H](OC)C(=O)[C@@H](O)[C@@H](C)O)C5)OC(C)C2OC(C)=O)OC1C (some centres not stated)
T/C (dose: 0.19 mg/kg/injection, schedule: Q04DX004 (sc), vehicle: Klucel (hydroxypropylcellulose) (HPC)): 103 % of control
T/C (dose: 0.3 mg/kg/injection, schedule: Q04DX004 (sc), vehicle: Klucel (hydroxypropylcellulose) (HPC)): 39 % of control
T/C (dose: 0.38 mg/kg/injection, schedule: Q04DX004 (sc), vehicle: Klucel (hydroxypropylcellulose) (HPC)): 85 % of control
T/C (dose: 0.75 mg/kg/injection, schedule: Q04DX004 (sc), vehicle: Klucel (hydroxypropylcellulose) (HPC)): 89 % of control
T/C (dose: 1.2 mg/kg/injection, schedule: Q04DX004 (sc), vehicle: Klucel (hydroxypropylcellulose) (HPC)): 46 % of control
T/C (dose: 1.5 mg/kg/injection, schedule: Q04DX004 (sc), vehicle: Klucel (hydroxypropylcellulose) (HPC)): 21 % of control

CCN(CC)CCCC(C)Nc1c2ccc(Cl)cc2nc2ccc(OC)cc12 (configuration not stated)
T/C (dose: 50.0 mg/kg/injection, schedule: Q01DX010 (sc), vehicle: saline with Tween-80): 75 % of control
T/C (dose: 100.0 mg/kg/injection, schedule: Q01DX010 (sc), vehicle: saline with Tween-80): 91 % of control
T/C (dose: 200.0 mg/kg/injection, schedule: Q01DX010 (sc), vehicle: saline with Tween-80): 38 % of control

COc1cc(Cc2nccc3cc(OC)c(OC)cc23)c(C(C)=O)c(OC)c1
T/C (dose: 40.0 mg/kg/injection, schedule: Q01DX010 (sc), vehicle: saline): 35 % of control
T/C (dose: 80.0 mg/kg/injection, schedule: Q01DX010 (sc), vehicle: saline): 50 % of control
T/C (dose: 160.0 mg/kg/injection, schedule: Q01DX010 (sc), vehicle: saline): 19 % of control

N[C@@H](Cc1ccc(N(CCCl)CCCl)cc1)C(=O)O
T/C (dose: 4.0 mg/kg/injection, schedule: Q04DX004 (ip), vehicle: saline): 47 % of control
T/C (dose: 6.0 mg/kg/injection, schedule: Q04DX004 (ip), vehicle: saline): 9 % of control
T/C (dose: 9.0 mg/kg/injection, schedule: Q04DX004 (ip), vehicle: saline): -5 % of control

NC(CCC(=O)NC(CS)C(=O)NCC(=O)O)C(=O)O (configuration not stated)
T/C [5]: 78 % of control
T/C (dose: 300.0 mg/kg/injection, schedule: Q04DX004 (sc), vehicle: saline): 168 % of control
T/C (dose: 600.0 mg/kg/injection, schedule: Q04DX004 (sc), vehicle: saline): 87 % of control

COc1cc2c(c(OC)c1OC)-c1ccc(OC)c(=O)cc1[C@@H](NC(=O)CCl)CC2
T/C (dose: 0.63 mg/kg/injection, schedule: Q04DX004 (sc), vehicle: saline with Tween-80): 60 % of control
T/C (dose: 1.25 mg/kg/injection, schedule: Q04DX004 (sc), vehicle: saline with Tween-80): 32 % of control
T/C (dose: 2.5 mg/kg/injection, schedule: Q04DX004 (sc), vehicle: saline with Tween-80): 57 % of control

Nc1nc(-c2cccc3ccccc23)cc2ccccc12
T/C [6]: 67 % of control
T/C [7]: 105 % of control

O=NN(CCF)C(=O)NC1CCCCC1
T/C (dose: 6.25 mg/kg/injection, schedule: Q04DX004 (sc), vehicle: Klucel (hydroxypropylcellulose) (HPC)): 55 % of control
T/C (dose: 12.5 mg/kg/injection, schedule: Q04DX004 (sc), vehicle: Klucel (hydroxypropylcellulose) (HPC)): 30 % of control
T/C (dose: 25.0 mg/kg/injection, schedule: Q04DX004 (sc), vehicle: Klucel (hydroxypropylcellulose) (HPC)): 62 % of control

Cc1cc2c(C(C)C)c(O)c(O)c(C=O)c2c(O)c1-c1c(C)cc2c(C(C)C)c(O)c(O)c(C=O)c2c1O
T/C [3]: 100 % of control
T/C [4]: 71 % of control
T/C [1]: 64 % of control
T/C [2]: 46 % of control

C[C@@H]1C[C@H]2[C@@H]3CCC4=CC(=O)C=C[C@]4(C)[C@@]3(F)[C@@H](O)C[C@]2(C)[C@@]1(O)C(=O)CO
T/C (dose: 1.56 mg/kg/injection, schedule: Q01DX010 (sc), vehicle: Klucel (hydroxypropylcellulose) (HPC)): 62 % of control
T/C (dose: 3.13 mg/kg/injection, schedule: Q01DX010 (sc), vehicle: Klucel (hydroxypropylcellulose) (HPC)): 40 % of control
T/C (dose: 6.25 mg/kg/injection, schedule: Q01DX010 (sc), vehicle: Klucel (hydroxypropylcellulose) (HPC)): 42 % of control
T/C (dose: 12.5 mg/kg/injection, schedule: Q01DX010 (sc), vehicle: Klucel (hydroxypropylcellulose) (HPC)): 39 % of control

CC1(C)N=C(N)N=C(N)N1c1ccc(CCCCc2ccc(S(=O)(=O)F)cc2Cl)c(Cl)c1
T/C (dose: 12.5 mg/kg/injection, schedule: Q01DX010 (sc), vehicle: saline): 84 % of control and 100 % of control
T/C (dose: 50.0 mg/kg/injection, schedule: Q01DX010 (sc), vehicle: saline): 98 % of control
T/C (dose: 100.0 mg/kg/injection, schedule: Q01DX010 (sc), vehicle: saline): 81 % of control

[Cl][Mn][Cl]
T/C (dose: 18.75 mg/kg/injection, schedule: Q04DX004 (sc), vehicle: saline): 182 % of control
T/C (dose: 75.0 mg/kg/injection, schedule: Q04DX004 (sc), vehicle: saline): 171 % of control
T/C [5]: 121 % of control

COc1cc2c[n+](C)c3c4cc5c(cc4ccc3c2cc1OC)OCO5
T/C [8]: 67 % of control
T/C (dose: 100.0 mg/kg/injection, schedule: Q04DX004 (sc), vehicle: saline with Tween-80): 48 % of control
T/C [6]: 79 % of control
T/C [7]: 60 % of control

N/C(=N\O)c1cn(C2OC(CO)C(O)C2O)c2ncnc(N)c12 (configuration not stated)
T/C (dose: 5.0 mg/kg/injection, schedule: Q04DX004 (sc), vehicle: Klucel (hydroxypropylcellulose) (HPC)): 67 % of control

C[CH2][Sn]([CH2]C)([CH2]C(=O)OC)[CH2]C(=O)OC
T/C (dose: 12.5 mg/kg/injection, schedule: Q04DX004 (sc), vehicle: saline with Tween-80): 79 % of control
T/C (dose: 25.0 mg/kg/injection, schedule: Q04DX004 (sc), vehicle: saline with Tween-80): 83 % of control
T/C [8]: 79 % of control

O=C(O)Cc1cccc2c(=O)cc(-c3ccccc3)oc12
T/C (dose: 112.0 mg/kg/injection, schedule: Q04DX003 (ip), vehicle: sodium bicarbonate): 42 % of control
T/C (dose: 150.0 mg/kg/injection, schedule: Q04DX003 (ip), vehicle: sodium bicarbonate): 90 % of control
T/C (dose: 200.0 mg/kg/injection, schedule: Q01DX001 (ip), vehicle: sodium bicarbonate): 105 % of control
T/C (dose: 200.0 mg/kg/injection, schedule: Q04DX003 (ip), vehicle: sodium bicarbonate): 46 % of control
T/C (dose: 267.0 mg/kg/injection, schedule: Q01DX001 (ip), vehicle: sodium bicarbonate): 52 % of control
